From patent US8551997B2, “Structural-based inhibitors of the glutathione binding site in aldose reductase, methods of screening therefor and methods of use” (The Board of Regents of the University of Texas System, priority 2004, dated 2013)

Experiments:
rat VSMC cells = test: High glucose-induced TNF-a production in VSMC; type: cell-based
Procedure: Growth-arrested VSMC in 5.5 mM glucose (NG) were preincubated for 1 h without or with apocyanin (25 mM), D609 (100 mM), calphostin C (0.2 mM), N-acetyl cysteine (10 mM) and NF-kB inhibitor (18 mM) (FIG. 4A) and without or with sorbinil or tolrestat (10 mM each) (FIG. 4B) followed by the addition of glucose (19.5 mM) and incubation for the indicated times. AR antisense ablated VSMC were incubated with HG for the indicated times (FIG. 4C).
Growth-arrested VSMC in 5.5 mM glucose (NG) were preincubated for 1 h without or with apocyanin (25 mM), D609 (100 mM), calphostin C (0.2 mM), N-acetyl cysteine (10 mM) and NF-kB inhibitor (18 mM) respectively, followed by the addition of 19.5 mM glucose, after which the cells were incubated for 12 and 24 hrs.

Caco-2 cells = test: PGE2 assay in Caco-2 cells; type: cell-based, human
Procedure: Caco-2 cells were plated in 6 well plates at a density of 2×10^5 cells/well. After 24 hours, the medium was replaced with fresh medium containing 0.1% serum with or without, sorbinil (20 μM) followed by treatment with either 10 ng/ml BFGF or PDGF, for another 24 h. HT29 cells were plated in 6 well plate at a density of 2×10^5 cells/well. After 24 hours, medium was replaced with serum-free medium with or without, sorbinil or zopolrestat (20 μM) followed by treatment with either EGF (5 ng/ml) or BFGF (10 ng/ml) for another 24 h. The medium from each cell lines was collected from each well and analyzed for PGE2 by using an Enzyme Immuno Assay kit according to the manufacturer's instructions (Cayman Chemical Co., Inc.).
Briefly, 50 μl of diluted standard/sample were pipetted into a pre-coated goat polyclonal anti-mouse IgG 96-well plate. Aliquots (50 μl) of a PGE2 monoclonal antibody and PGE2 acetylcholine esterase (AchE) conjugate, (PGE2 tracer) were added to each well and allowed to incubate at 4° C. for 24 h. After incubation, the wells were washed five times with wash buffer containing 0.05% Tween-20, followed by the addition of 200 μl of Ellman's reagent containing acetylthiocholine and 5,5′-dithio-bis-(2-nitrobenzoic acid). Samples were read after 60 min at 412 nm with an ELISA reader. In this procedure the intensity of yellow color, is proportional to the amount of PGE2 tracer bound to the well and is inversely proportional to the amount of free PGE2 present in the well during incubation.

isolated mouse hearts = test: Isolated mouse hearts (Langendorff preparation) challenged with LPS; settings: perfusion with sorbinil in the presence of LPS
RAW264.7 macrophages = test: LPS- and lipid aldehyde-induced signaling in RAW264.7 macrophages; type: cell-based; parameters: HNE and protein-HNE adduct levels: dose or concentration left out as unconfirmed
Procedure: At the indicated times, cells were harvested for measurement of HNE (FIG. 5A), protein-HNE adducts (FIG. 5B), NF-kB (FIG. 5C), and TNF-a and IL-6 (FIG. 5D) as described in the methods. Cells were growth arrested as described above or transfected with control or AR siRNA oligonucleotides, incubated with GS-HNE-ester, or GS-DHN-ester (1 mM), and harvested for determination of NF-kB (FIG. 5E), membrane-bound total PKC (FIG. 5F).
To determine if GS-DHN serves as a cellular sensor of ROS-induced insults, its effects on phosphorylation events upstream of IKK/NF-κB activation in RAW264.7 macrophages was examined.

A549 cells = test: Flowcytometric cell cycle analysis, A549; type: cell-based, human; settings: 10% FBS
Procedure: The Caco-2 and A549 cells were grown separately in 6 well plates at a density of approximately 1.5×10^5 cells/well. Growth-arrested Caco-2 cells were pre-incubated with or without sorbinil 20 μM or carrier for 24 h and then stimulated with either 10 ng/ml BFGF or PDGF for another 24 h. After 24 hrs A549 cells were incubated with or without sorbinil at different concentrations for another 24 h.
The Caco-2 and A549 cells were then washed with PBS and harvested by trypsinization. Cellular DNA was stained with low and high salt solutions. Briefly, cells were resuspended in 250 μl of solution A, low salt stain, containing polyetheleneglycol (30 mg/ml), propidium iodide (0.05 mg/ml), triton-x-100 (1 μl/ml), sodium citrate 4 mM, RNAse A 10 μg/ml and incubated at 37° C. for 20 min followed by the addition of 250 μl of solution B, high salt stain containing 400 mM NaCl instead of 4 mM sodium citrate in solution A, and incubated overnight at 4° C. Cell cycle analysis was performed with a minimum of 10,000 events per analysis by using FACScan flow cytometer (Becton, Dickinson and Co., San Jose, Calif., USA).

## (S)-6-fluorospiro[chroman-4,4′-imidazolidine]-2,5′-dione [sorbinil]
Rat VSMC cells; media containing 5.5 mM glucose, mannitol, or 3-OMG
  basal levels of TNF-a: did not affect
Rat VSMC cells; preincubated 1 h, then 19.5 mM glucose, apocyanin 25 mM, calphostin C 0.2 mM, N-acetyl cysteine 10 mM, sorbinil or tolrestat 10 mM each, or AR antisense ablated
  high glucose-induced TNF-a secretion: prevents
Caco-2 cells; sorbinil 20 μM, 10 ng/ml BFGF or PDGF, 24 h
  prevention of PGE2 production induced by BFGF and PDGF: > 90%
Caco-2 cells; sorbinil 24 h, GS-DHN-ester 24 h
  GS-DHN-induced PGE2 production: had no effect
Caco-2 cells; sorbinil 24 h, aldehydes 24 h
  HNE and GS-HNE-induced PGE2 production: significantly prevented
Caco-2 cells; sorbinil alone
  constitutive levels of PGE2: did not inhibit
Isolated mouse hearts
  time to maximal ±dP/dt, coronary perfusion pressure, coronary vascular resistance, heart rate: unaffected
Isolated mouse hearts; compared to vehicle
  left ventricular pressure (LVP), +dP/dtmax and −dP/dtmax: significantly increased
RAW264.7 macrophages
  HNE and protein-HNE adduct levels: increased
  ability of GS-DHN to activate NF-κB: had no effect
  effects of HNE/GS-HNE on IKK-a/b phosphorylation and NF-kB translocation: significantly blunted
RAW264.7 macrophages; LPS 1 mg/ml, sorbinil 10 mM
  LPS-induced NF-κB and cytokine activation: significantly decreased
A549 cells; 25 μM
  percentage of cells in G1: 58.79%
  percentage of cells in G2: 6.06%
  percentage of cells in S: 35.14%
A549 cells; 50 μM
  percentage of cells in G1: 59.24%
  percentage of cells in G2: 5.47%
  percentage of cells in S: 35.29%
A549 cells; 75 μM
  percentage of cells in G1: 64.21%
  percentage of cells in G2: 5.55%
  percentage of cells in S: 30.24%
A549 cells; 100 μM
  percentage of cells in G1: 65.55%
  percentage of cells in G2: 4.8%
  percentage of cells in S: 29.75%
